Test results reported in patent US20260217652A1, “PHENYL-SUBSTITUTED HETEROARYL COMPOUND AND PHARMACEUTICAL COMPOSITION COMPRISING SAME, PREPARATION METHOD THEREFOR AND USE THEREOF” (SHANGHAI MEIYUE BIOTECH DEVELOPMENT CO., LTD., priority 2023, published 2026).

Biological target: T1, p38 MAPK/MK2 (Homo sapiens, UniProt Q16539)
T1 construct: purchased Carna (p38α); Abcam (MK2) 04-152; 79910
Assay: In vitro activity assay of p38 MAPK/MK2 (Z-LYTE kinase assay kit)
Format: biochemical
Settings: active p38α, inactive MK2, Ser/Thr 4; 1-hour reaction at 20° C.
Procedure: The inhibitory effect of the compound on p38 MAPK/MK2 was evaluated using the Z-LYTE kinase assay kit (Thermo, PV3177). The test compound was dissolved in DMSO to obtain a 10 mM stock solution and stored at −20° C. for future use. The initial concentration of the compound was […], with 1% DMSO, 5-fold serial dilution, 8 concentrations, and duplicate wells. […] After a 1-hour reaction at 20° C., Development Reagent A diluted 2048-fold was added to each well, followed by incubation at room temperature for 1 hour. The reaction was terminated by adding 5 μL of stop buffer, and the plate was read using a microplate reader (Ex. 400 nm, Em. 445 nm; Ex. 400 nm, Em. 520 nm). The concentration-effect curve was fitted using GraphPad Prism 8 software, and the compound concentration resulting in 50% inhibition, IC50, was calculated.

T1 sequence (Q16539 whole entry): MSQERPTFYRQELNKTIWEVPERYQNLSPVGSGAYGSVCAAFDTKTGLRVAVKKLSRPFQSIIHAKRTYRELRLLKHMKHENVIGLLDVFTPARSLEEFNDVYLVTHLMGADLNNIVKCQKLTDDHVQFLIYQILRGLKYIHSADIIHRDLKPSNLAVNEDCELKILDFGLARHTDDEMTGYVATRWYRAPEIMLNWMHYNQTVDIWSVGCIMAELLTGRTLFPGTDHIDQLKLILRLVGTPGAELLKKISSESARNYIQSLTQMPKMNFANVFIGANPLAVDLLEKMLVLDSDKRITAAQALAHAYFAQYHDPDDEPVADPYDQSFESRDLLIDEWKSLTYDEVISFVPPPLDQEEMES
T1 sequence (P49137 whole entry partner): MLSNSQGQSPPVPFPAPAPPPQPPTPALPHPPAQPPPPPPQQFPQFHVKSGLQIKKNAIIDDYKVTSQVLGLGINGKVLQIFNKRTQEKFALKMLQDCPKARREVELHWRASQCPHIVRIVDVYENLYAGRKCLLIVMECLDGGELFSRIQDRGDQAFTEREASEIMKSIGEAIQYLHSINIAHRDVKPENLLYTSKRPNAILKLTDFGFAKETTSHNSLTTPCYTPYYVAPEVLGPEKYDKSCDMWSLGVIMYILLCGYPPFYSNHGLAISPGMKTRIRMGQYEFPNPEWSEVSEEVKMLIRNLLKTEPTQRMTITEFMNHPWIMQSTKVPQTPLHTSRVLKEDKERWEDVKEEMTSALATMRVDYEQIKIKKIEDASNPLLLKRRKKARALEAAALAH

Row | Structure (SMILES) | IC50 [nM]
1 | COC[C@](C)(O)c1c(F)ccc(-c2cc(-n3c(C)cc(OCc4ncc(F)cc4F)c(Cl)c3=O)c(C)cn2)c1F (atropisomer, axis not shown) [Compound 149] | 2.25
2 | Cc1cnc(-c2ccc(F)c([C@@](C)(O)CO)c2)c(F)c1-n1c(C)cc(OCc2ncc(F)cc2F)c(Cl)c1=O (single isomer, unassigned) [Compound 51-P1] | 1.83
3 | Cc1cnc(-c2ccc(F)c([C@](C)(O)CO)c2F)cc1-n1c(C)cc(OCc2ncc(F)cc2F)c(Cl)c1=O (single isomer, unassigned) [Compound 65-1] | 1.27
4 | Cc1cnc(-c2ccc(F)c([C@@](C)(O)CO)c2F)cc1-n1c(C)cc(OCc2ncc(F)cc2F)c(Cl)c1=O (single isomer, unassigned) [Compound 65-2] | 1.86
5 | Cc1cnc(-c2ccc(F)c([C@](C)(O)CO)c2F)cc1-n1c(C)cc(OCc2ncc(F)cc2F)c(Cl)c1=O (single isomer, unassigned) [Compound 65-P2] | 0.4
6 | Cc1cnc(-c2ccc3c(c2)C(C)(O)C(=O)N3)c(F)c1-n1c(C)cc(OCc2ncc(F)cc2F)c(Cl)c1=O (single isomer, unassigned) [Compound 115-P1] | 0.14
7 | Cc1cnc(-c2ccc3c(c2)C(C)(O)C(=O)N3)c(F)c1-n1c(C)cc(OCc2ncc(F)cc2F)c(Cl)c1=O (single isomer, unassigned) [Compound 115-P2] | 0.7
8 | CNC(=O)C(C)(O)c1c(F)ccc(-c2cc(-n3c(C)cc(OCc4ncc(F)cc4F)c(Cl)c3=O)c(C)cn2)c1F (single isomer, unassigned) [Compound 116-P2] | 2.26
9 | CNC(=O)C(C)(O)c1c(F)ccc(-c2cc(-n3c(C)cc(OCc4ncc(F)cc4F)c(Cl)c3=O)c(C)cn2)c1F (single isomer, unassigned) [Compound 116-P4] | 0.14
10 | CNC(=O)C(C)(O)c1cccc(-c2cc(-n3c(C)cc(OCc4ncc(F)cc4F)c(Cl)c3=O)c(C)cn2)c1F (single isomer, unassigned) [Compound 121-P1] | 6.81
11 | CNC(=O)C(C)(O)c1cccc(-c2cc(-n3c(C)cc(OCc4ncc(F)cc4F)c(Cl)c3=O)c(C)cn2)c1F (single isomer, unassigned) [Compound 121-P2] | 2.83
12 | Cc1cnc(-c2ccc(F)c(C(C)(O)C(N)=O)c2F)cc1-n1c(C)cc(OCc2ncc(F)cc2F)c(Cl)c1=O (single isomer, unassigned) [Compound 125-P1] | 0.41
13 | Cc1cnc(-c2ccc(F)c(C(C)(O)C(N)=O)c2F)cc1-n1c(C)cc(OCc2ncc(F)cc2F)c(Cl)c1=O (single isomer, unassigned) [Compound 125-P3] | 0.28
14 | Cc1cnc(-c2cccc(C(C)(O)C(N)=O)c2F)cc1-n1c(C)cc(OCc2ncc(F)cc2F)c(Cl)c1=O (single isomer, unassigned) [Compound 126-P1] | 1.68
15 | Cc1cnc(-c2cccc(C(C)(O)C(N)=O)c2F)cc1-n1c(C)cc(OCc2ncc(F)cc2F)c(Cl)c1=O (single isomer, unassigned) [Compound 126-P3] | 0.28
16 | Cc1cnc(-c2cccc(C(=O)NO)c2)cc1-n1c(C)cc(OCc2ncc(F)cc2F)c(Cl)c1=O [Compound 5] | 90.3
17 | Cc1cnc(-c2cccc(C(=O)NOCCO)c2)cc1-n1c(C)cc(OCc2ncc(F)cc2F)c(Cl)c1=O [Compound 7] | 87.5
18 | Cc1cnc(-c2cccc(C(=O)N3CC(C)(O)C3)c2)cc1-n1c(C)cc(OCc2ncc(F)cc2F)c(Cl)c1=O [Compound 10] | 60.5
19 | CNC(=O)c1cc(-c2cc(-n3c(C)cc(OCc4ncc(F)cc4F)c(Cl)c3=O)c(C)cn2)ccc1F [Compound 17] | 87.9
20 | Cc1cnc(-c2cccc(C(N)=O)c2F)cc1-n1c(C)cc(OCc2ncc(F)cc2F)c(Cl)c1=O [Compound 21-P2] | 0.51
21 | Cc1cnc(-c2cccc([C@](C)(O)CO)c2F)cc1-n1c(C)cc(OCc2ncc(F)cc2F)c(Cl)c1=O [Compound 35-P2] | 0.71
22 | Cc1cnc(-c2cccc(C(C)(O)CO)c2F)cc1-n1c(C)cc(OCc2ncc(F)cc2F)c(Cl)c1=O (centres unmarked) [Compound 35] | 2.39
23 | Cc1cnc(-c2cccc([C@](C)(O)CO)c2Cl)cc1-n1c(C)cc(OCc2ncc(F)cc2F)c(Cl)c1=O [Compound 37-1] | 4.66
24 | Cc1ccc(-c2ncc(C)c(-n3c(C)cc(OCc4ncc(F)cc4F)c(Cl)c3=O)c2F)cc1[C@@](C)(O)CO [Compound 52-P1] | 0.12
25 | Cc1cnc(-c2ccc(Cl)c([C@](C)(O)CO)c2)c(F)c1-n1c(C)cc(OCc2ncc(F)cc2F)c(Cl)c1=O [Compound 53-1] | 1.2

Row | Structure (SMILES) | IC50 [nM]
26 | Cc1cnc(-c2ccc(Cl)c([C@@](C)(O)CO)c2)c(F)c1-n1c(C)cc(OCc2ncc(F)cc2F)c(Cl)c1=O [Compound 53-2] | 3.02
27 | Cc1cnc(-c2cccc([C@](C)(O)CO)c2Cl)c(F)c1-n1c(C)cc(OCc2ncc(F)cc2F)c(Cl)c1=O [Compound 62-P1] | 0.35
28 | Cc1cnc(-c2cccc([C@@](C)(O)CO)c2Cl)c(F)c1-n1c(C)cc(OCc2ncc(F)cc2F)c(Cl)c1=O [Compound 62-P3] | 0.058
29 | Cc1cnc(-c2cccc([C@@](C)(O)CO)c2)cc1-n1c(C)cc(OCc2ncc(F)cc2F)c(Cl)c1=O [Compound 87-P1] | 8.54
30 | Cc1cnc(-c2cccc(C(C)(C)O)c2F)cc1-n1c(C)cc(OCc2ncc(F)cc2F)c(Cl)c1=O [Compound 101] | 0.93
31 | Cc1cnc(-c2cccc(C(C)(C)O)c2O)cc1-n1c(C)cc(OCc2ncc(F)cc2F)c(Cl)c1=O [Compound 102] | 0.15
32 | Cc1cnc(-c2cc([C@@](C)(O)CO)ccc2F)c(F)c1-n1c(C)cc(OCc2ncc(F)cc2F)c(Cl)c1=O [Compound 106-P1] | 7.73
33 | Cc1cnc(-c2cc([C@@](C)(O)CO)ccc2Cl)c(F)c1-n1c(C)cc(OCc2ncc(F)cc2F)c(Cl)c1=O [Compound 107-P1] | 4.99
34 | Cc1cnc(-c2cc(F)cc([C@](C)(O)CO)c2F)cc1-n1c(C)cc(OCc2ncc(F)cc2F)c(Cl)c1=O [Compound 110-1] | 1.94
35 | Cc1cnc(-c2cc(F)cc([C@@](C)(O)CO)c2F)cc1-n1c(C)cc(OCc2ncc(F)cc2F)c(Cl)c1=O [Compound 110-P1] | 0.7
36 | Cc1cnc(-c2ccc3c(c2)C(C)(C)NC3=O)c(F)c1-n1c(C)cc(OCc2ncc(F)cc2F)c(Cl)c1=O [Compound 129] | 19.9
37 | Cc1cnc(-c2ccc3c(c2F)C(C)(C)NC3=O)cc1-n1c(C)cc(OCc2ncc(F)cc2F)c(Cl)c1=O [Compound 134] | 39.9
38 | Cc1cnc(-c2cccc(C3(O)CC3)c2F)cc1-n1c(C)cc(OCc2ncc(F)cc2F)c(Cl)c1=O [Compound 135] | 13
39 | Cc1cnc(-c2cccc(C3(O)CC3)c2)c(F)c1-n1c(C)cc(OCc2ncc(F)cc2F)c(Cl)c1=O [Compound 136] | 26.2
40 | Cc1cnc(-c2ccc(F)c(C(C)(O)C(=O)O)c2)c(F)c1-n1c(C)cc(OCc2ncc(F)cc2F)c(Cl)c1=O (centres unmarked) [Compound 138-1] | 1.21
41 | CNCC(C)(O)c1cc(-c2ncc(C)c(-n3c(C)cc(OCc4ncc(F)cc4F)c(Cl)c3=O)c2F)ccc1F (centres unmarked) [Compound 139] | 53
42 | Cc1cc(OCc2ncc(F)cc2F)c(Cl)c(=O)n1-c1ccnc(-c2ccc(F)c(C(C)(C)O)c2F)c1 [Compound 142] | 3.37
43 | Cc1cc(OCc2ncc(F)cc2F)c(Cl)c(=O)n1-c1ccnc(-c2cccc([C@@](C)(O)CO)c2F)c1 [Compound 143] | 18.1
44 | Cc1cc(OCc2ncc(F)cc2F)c(Cl)c(=O)n1-c1ccnc(-c2ccc(F)c([C@@](C)(O)CO)c2F)c1 [Compound 144] | 12.6
45 | CC[C@](O)(CO)c1cccc(-c2cc(-n3c(C)cc(OCc4ncc(F)cc4F)c(Cl)c3=O)c(C)cn2)c1F [Compound 147] | 7.94
46 | COC[C@](C)(O)c1cccc(-c2cc(-n3c(C)cc(OCc4ncc(F)cc4F)c(Cl)c3=O)c(C)cn2)c1F [Compound 148-P1] | 15.9
47 | CNCC(C)(O)c1cccc(-c2cc(-n3c(C)cc(OCc4ncc(F)cc4F)c(Cl)c3=O)c(C)cn2)c1F (centres unmarked) [Compound 150] | 8.59
48 | COc1cnc(-c2cccc([C@@](C)(O)CO)c2F)cc1-n1c(C)cc(OCc2ncc(F)cc2F)c(Cl)c1=O [Compound 154] | 20.6
49 | COc1cnc(-c2cccc(C(C)(C)O)c2F)cc1-n1c(C)cc(OCc2ncc(F)cc2F)c(Cl)c1=O [Compound 155] | 3.49
50 | Cc1cc(OCc2ncc(F)cc2F)c(Cl)c(=O)n1-c1ccnc(-c2cccc(C3(CO)CC3)c2F)c1 [Compound 156] | 0.336
